Laboratory results from patent publication US7595313B2, “Nitric oxide donating diuretic compounds, compositions and methods of use” (NicOx, S.A., priority 2005, dated 2009).

How the values were obtained:
Male Wistar rats = assay: Determination of the diuresis (urine volume over 6 hours after oral dosing); format: in vivo, rat
Procedure: Procedures were approved by the Institutional Animal Care and Use Committee of NitroMed, Inc. Male Wistar rats (180-200 g) were purchased from Charles River Laboratories (Kingston, N.Y. or Raleigh, N.C.) and allowed to acclimate in the facility for a period of at least 72 h. Rats were randomly housed 2-3 per cage in a light-controlled room with a 12 hour light/dark cycle and allowed ad libitum access to food and water.
Prior to the experiment, each rat was placed in a metabolic cage and allowed to acclimate for a period of 24-48 hours with food and water ad libitum. During this acclimation period, rats received mash food instead of pellet food to prevent contamination of the urine samples. All rats were fasted for 18 hours prior to experimentation. In addition, water was removed 90 minutes prior to oral dosing with test compound or vehicle.
The test compounds were prepared immediately prior to dosing in 0.5% Methocel (F4M Premium Hydroxypropyl Methylcellulose, lot # PF12012N12; Dow Chemical Company, USA) and homogenized with a glass/Teflon pestle motorized homogenizer. Gently vortexed test compounds were administered intragastrically (p.o.; 30 mg/kg or 3 mg/kg) at a dose volume of 3 ml per rat using an 18 gauge gavage needle. Urine volume (ml) was monitored and urine was collected for subsequent electrolyte analysis over a 6 hours period. […] Data are expressed as mean ±SEM; n=6 or 7.

[1] = p.o. 30 mg/kg in 0.5% Methocel, male Wistar rats, 6 hours, mean ± SEM, n=6 or 7
[2] = p.o. 3 mg/kg in 0.5% Methocel, male Wistar rats, 6 hours, mean ± SEM, n=6 or 7

SMILES | Urine collected in 6 hours (mL) (3 mg/kg) (Male Wistar rats; rat, in vivo, po) | melting point | also measured
NS(=O)(=O)c1cc2c(cc1Cl)NC(c1cc(CO[N+](=O)[O-])cc(CO[N+](=O)[O-])c1)NS2(=O)=O (stereo not shown) [Example 50c, 2H-1,2,4-Benzothiadiazine-7-sulfonamide, 3-[3,5-bis[(nitrooxy)methyl]phenyl]-6-chloro-3,4-dihydro-, 1,1-dioxide] | 3.3 ± 0.6 mL | 121 to 124 °C | –
NS(=O)(=O)c1cc2c(cc1Cl)N=C(NC(=O)CCCCO[N+](=O)[O-])NS2(=O)=O [Example 4c, Pentanamide, N-[7-(aminosulfonyl)-6-chloro-1,1-dioxido-2H-1,2,4-benzothiadiazin-3-yl]-5-(nitrooxy)-] | – | 222 to 225 °C | Urine collected in 6 hours (mL) (30 mg/kg) (Male Wistar rats; [1]): 3.8 ± 0.7 mL
NS(=O)(=O)c1cc2c(cc1C(F)(F)F)NC(CCCO[N+](=O)[O-])NS2(=O)=O (stereo not shown) [Example 3d, 2H-1,2,4-Benzothiadiazine-7-sulfonamide, 3,4-dihydro-3-[3-(nitrooxy)propyl]-6-(trifluoromethyl)-, 1,1-dioxide] | – | 165 °C (dec.) | Urine collected in 6 hours (mL) (30 mg/kg) (Male Wistar rats; [1]): 5.3 ± 0.8 mL
NS(=O)(=O)c1cc2c(cc1Cl)NC(CNC(=O)CN(CCO[N+](=O)[O-])CCO[N+](=O)[O-])NS2(=O)=O (stereo not shown) [Example 57c, Acetamide, N-[[7-(aminosulfonyl)-6-chloro-3,4-dihydro-1,1-dioxido-2H-1,2,4-benzothiadiazin-3-yl]methyl]-2-[bis[2-(nitrooxy)ethyl]amino]-] | 3.6 ± 0.6 mL | 118 °C (dec.) | –
CC(CO[N+](=O)[O-])(CO[N+](=O)[O-])C(=O)N1CCC2(CC1)Nc1cc(C(F)(F)F)c(S(N)(=O)=O)cc1S(=O)(=O)N2 [Example 16c, Spiro[2H-1,2,4-benzothiadiazine-3(4H), 4′-piperidine]-7-sulfonamide, 1′-[2-methyl-3-(nitrooxy)-2-[(nitrooxy)methyl]-1-oxopropyl]-6-(trifluoromethyl)-, 1,1-dioxide] | – | > 140 °C (dec.) | Urine collected in 6 hours (mL) (30 mg/kg) (Male Wistar rats; rat, in vivo, po): 4.3 ± 0.3 mL
CC1(C)CC(CC2Nc3cc(Cl)c(S(N)(=O)=O)cc3S(=O)(=O)N2)CC(C)(C)N1O (stereo not shown) [Example 76b, 1-Piperidinyloxy, 4-[[7-(aminosulfonyl)-6-chloro-3,4-dihydro-1,1-dioxido-2H-1,2,4-benzothiadiazin-3-yl]methyl]-2,2,6,6-tetramethyl-] | – | 238 to 240 °C | Urine collected in 6 hours (mL) (3 mg/kg) (Male Wistar rats; p.o. 3 mg/kg in 0.5% Methocel, male Wistar rats, 6 hours, mean ± SEM, n=6 or 7, 3 mg/kg): 2.2 ± 0.4 mL
NS(=O)(=O)c1cc2c(cc1C(F)(F)F)NC(c1cc(CO[N+](=O)[O-])cc(CO[N+](=O)[O-])c1)NS2(=O)=O (stereo not shown) [Example 55, 2H-1,2,4-Benzothiadiazine-7-sulfonamide, 3-[3,5-bis[(nitrooxy)methyl]phenyl]-3,4-dihydro-6-(trifluoromethyl)-, 1,1-dioxide] | 3.3 ± 0.4 mL | > 113 °C (dec.) | –
NS(=O)(=O)c1cc2c(cc1Cl)NCN(CCCC(CO[N+](=O)[O-])O[N+](=O)[O-])S2(=O)=O (stereo not shown) [Example 43b, 2H-1,2,4-Benzothiadiazine-7-sulfonamide, 2-[4,5-bis(nitrooxy)pentyl]-6-chloro-3,4-dihydro-, 1,1-dioxide] | 3.0 ± 0.6 mL | 49 to 53 °C | –
NS(=O)(=O)c1cc2c(cc1Cl)NC(CC(=O)N(CCO[N+](=O)[O-])CCO[N+](=O)[O-])NS2(=O)=O (stereo not shown) [Example 49e, 2H-1,2,4-Benzothiadiazine-3-acetamide, 7-(aminosulfonyl)-6-chloro-3,4-dihydro-N,N-bis[2-(nitrooxy)ethyl]-, 1,1-dioxide] | 2.5 ± 0.5 mL | 94 to 97 °C | –
NS(=O)(=O)c1cc2c(cc1Cl)NCN(CCCC(=O)O)S2(=O)=O [Example 53c, 2H-1,2,4-Benzothiadiazine-2-butanoic acid, 7-(aminosulfonyl)-6-chloro-3,4-dihydro-, 1,1-dioxide] | – | 72 to 78 °C | Urine collected in 6 hours (mL) (3 mg/kg) (Male Wistar rats; [2]): 3.7 ± 0.4 mL
NS(=O)(=O)c1cc2c(cc1Cl)NCN(CCCO)S2(=O)=O [Example 59, 2H-1,2,4-Benzothiadiazine-7-sulfonamide, 6-chloro-3,4-dihydro-2-(3-hydroxypropyl)-, 1,1-dioxide] | – | 160 °C | Urine collected in 6 hours (mL) (3 mg/kg) (Male Wistar rats; [2]): 6.7 ± 0.6 mL
NS(=O)(=O)c1cc2c(cc1Cl)NCN(CCOc1cc(CO[N+](=O)[O-])cc(CO[N+](=O)[O-])c1)S2(=O)=O [Example 71c, 2H-1,2,4-Benzothiadiazine-7-sulfonamide, 2-[2-[3,5-bis[(nitrooxy)methyl]phenoxy]ethyl]-6-chloro-3,4-dihydro-, 1,1-dioxide] | 1.3 ± 0.6 mL | 72 to 75 °C | –
NS(=O)(=O)c1cc2c(cc1Cl)NCN(CC[C@@H](CO[N+](=O)[O-])O[N+](=O)[O-])S2(=O)=O [Example 48b, 2H-1,2,4-Benzothiadiazine-7-sulfonamide, 2-[(3S)-3,4-bis(nitrooxy)butyl]-6-chloro-3,4-dihydro-, 1,1-dioxide] | 4.8 ± 0.8 mL | 162 to 163 °C | –
NS(=O)(=O)c1cc2c(cc1Cl)NCN(CCCCOc1cc(CO[N+](=O)[O-])cc(CO[N+](=O)[O-])c1)S2(=O)=O [Example 69b, 2H-1,2,4-Benzothiadiazine-7-sulfonamide, 2-[4-[3,5-bis[(nitrooxy)methyl]phenoxy]butyl]-6-chloro-3,4-dihydro-, 1,1-dioxide] | 2.5 ± 0.5 mL | 65 to 67 °C | –
CC(CO[N+](=O)[O-])(CO[N+](=O)[O-])C(=O)N1CCC2(CC1)Nc1cc(Cl)c(S(N)(=O)=O)cc1S(=O)(=O)N2 [Example 23, Spiro[2H-1,2,4-benzothiadiazine-3(4H), 4′-piperidine]-7-sulfonamide, 6-chloro-1′-[2-methyl-3-(nitrooxy)-2-[(nitrooxy)methyl]-1-oxopropyl]-, 1,1-dioxide] | – | 142 to 145 °C | Urine collected in 6 hours (mL) (30 mg/kg) (Male Wistar rats; rat, in vivo, po): 1.7 ± 0.6 mL
NS(=O)(=O)c1cc2c(cc1Cl)NCN(CCCOc1cc(CO[N+](=O)[O-])cc(CO[N+](=O)[O-])c1)S2(=O)=O [Example 70c, 2H-1,2,4-Benzothiadiazine-7-sulfonamide, 2-[3-[3,5-bis[(nitrooxy)methyl]phenoxy]propyl]-6-chloro-3,4-dihydro-, 1,1-dioxide] | 3.3 ± 0.4 mL | 70 to 72 °C | –
NS(=O)(=O)c1cc2c(cc1Cl)NCN(CC(=O)N(CCCO[N+](=O)[O-])CCCO[N+](=O)[O-])S2(=O)=O [Example 72b, 2H-1,2,4-Benzothiadiazine-2-acetamide, 7-(aminosulfonyl)-6-chloro-3,4-dihydro-N,N-bis[3-(nitrooxy)propyl]-, 1,1-dioxide] | 1.8 ± 0.2 mL | 157 to 160 °C | –
CN(CCO[N+](=O)[O-])CC1Nc2cc(Cl)c(S(N)(=O)=O)cc2S(=O)(=O)N1 (stereo not shown) [Example 45, 2H-1,2,4-Benzothiadiazine-7-sulfonamide, 6-chloro-3,4-dihydro-3-[[methyl[2-(nitrooxy)ethyl]amino]methyl]-, 1,1-dioxide] | – | 175 to 180 °C | Urine collected in 6 hours (mL) (3 mg/kg) (Male Wistar rats; [2]): 4.8 ± 1.3 mL
Cc1c(C2Nc3cc(Cl)c(S(N)(=O)=O)cc3S(=O)(=O)N2)no[n+]1[O-] (stereo not shown) [Example 9b, 2H-1,2,4-Benzothiadiazine-7-sulfonamide, 6-chloro-3,4-dihydro-3-(4-methyl-5-oxido-1,2,5-oxadiazol-3-yl)-, 1,1-dioxide] | – | 242 to 243 °C (dec.) | Urine collected in 6 hours (mL) (30 mg/kg) (Male Wistar rats; [1]): 6.7 ± 0.8 mL
NS(=O)(=O)c1cc2c(cc1Cl)NC(CCCCO)NS2(=O)=O (stereo not shown) [Example 26, 2H-1,2,4-Benzothiadiazine-7-sulfonamide, 6-chloro-3,4-dihydro-3-(4-hydroxybutyl)-, 1,1-dioxide] | – | 202 to 211 °C | Urine collected in 6 hours (mL) (30 mg/kg) (Male Wistar rats; [1]): 6.0 ± 0.4 mL
NS(=O)(=O)c1cc2c(cc1Cl)NCN(CCCCCCO[N+](=O)[O-])S2(=O)=O [Example 58b, 2H-1,2,4-Benzothiadiazine-7-sulfonamide, 6-chloro-3,4-dihydro-2-[6-(nitrooxy)hexyl]-, 1,1-dioxide] | – | 158 to 160 °C | Urine collected in 6 hours (mL) (3 mg/kg) (Male Wistar rats; [2]): 6.3 ± 0.2 mL
NS(=O)(=O)c1cc2c(cc1Cl)NC(CCc1cc(CO[N+](=O)[O-])cc(CO[N+](=O)[O-])c1)NS2(=O)=O (stereo not shown) [Example 80b, 2H-1,2,4-Benzothiadiazine-7-sulfonamide, 3-[2-[3,5-bis[(nitrooxy)methyl]phenyl]ethyl]-6-chloro-3,4-dihydro-, 1,1-dioxide] | 3.9 ± 0.5 mL | 101 to 104 °C | –
NS(=O)(=O)c1cc2c(cc1Cl)NC(CCCO[N+](=O)[O-])NS2(=O)=O (stereo not shown) [Example 8, 2H-1,2,4-Benzothiadiazine-7-sulfonamide, 6-chloro-3,4-dihydro-3-[3-(nitrooxy)propyl]-, 1,1-dioxide] | – | 178 to 181 °C | Urine collected in 6 hours (mL) (30 mg/kg) (Male Wistar rats; [1]): 6.2 ± 0.7 mL
